These results are taken from patent publication US20260364184A1, “COMPOUND BASED ON OXOISOINDOLINYL-SUBSTITUTED TETRAHYDROPYRIMIDINE-DIONE AND USE THEREOF” (GLUETACS THERAPEUTICS (SHANGHAI) CO., LTD., priority 2023, published 2026).

Assay type in all cases: cell-based
Assay [1] deals with Human Multiple myeloma cell line (MM.1S). Description: Inhibition of MM.1S cell proliferation (CellTiter luminescent viability). The note with it: Homo sapiens, MM1.S, Table IA5, IRAK4 inhibitor-based, 96 hours; for inhibition at 0.01 µM: 10 nM, read-out: Inhibition Rate at 10 nM (%); for inhibition at 0.5 µM: 500 nM, read-out: Inhibition Rate at 500 nM (%). The procedure, abridged: (§1)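 IC50 is fitted from luminescent viability (CellTiter-Meiluncell) curves. Nine-point, 5-fold dilution series (top stock 2000 μM) are added at 0.5 μL per 100 μL medium to cells plated the day before, with growth at 37 °C and 5% CO2.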

In assay [2] the test system is Human myeloid monocytic leukemia cell line (MV-4-11). Description: Inhibition of MV-4-11 cell proliferation (CellTiter luminescent viability). The note with it: Homo sapiens, MV4-11, Table IA3, IRAK4 inhibitor-based, 96 hours; for inhibition at 0.01 µM: MV-4-11, 10 nM, read-out: Inhibition Rate at 10 nM (%); for inhibition at 0.5 µM: MV-4-11, 500 nM, read-out: Inhibition Rate at 500 nM (%). In outline:
as §1

In assay [3] the test system is Human B-Cell Lymphoma Cells (RPMI-8226). Description: Inhibition of RPMI-8226 cell proliferation (CellTiter luminescent viability). The note with it: Table IA4, IRAK4 inhibitor-based, RPMI-8226, 500 nM, 96 hours, read-out: Inhibition Rate at 500 nM (%).
Assay in assay [4]: as above
The note with it: Homo sapiens; Table IA4, IRAK4 inhibitor-based; RPMI-8226, 10 nM, 96 hours; read-out: Inhibition Rate at 10 nM (%).

A further assay concerns the target T1, IRAK4 (Homo sapiens, UniProt Q9NWZ3).
T1 construct: expression of target proteins in cells; endogenous in cells
T1 sequence (Q9NWZ3 1-460): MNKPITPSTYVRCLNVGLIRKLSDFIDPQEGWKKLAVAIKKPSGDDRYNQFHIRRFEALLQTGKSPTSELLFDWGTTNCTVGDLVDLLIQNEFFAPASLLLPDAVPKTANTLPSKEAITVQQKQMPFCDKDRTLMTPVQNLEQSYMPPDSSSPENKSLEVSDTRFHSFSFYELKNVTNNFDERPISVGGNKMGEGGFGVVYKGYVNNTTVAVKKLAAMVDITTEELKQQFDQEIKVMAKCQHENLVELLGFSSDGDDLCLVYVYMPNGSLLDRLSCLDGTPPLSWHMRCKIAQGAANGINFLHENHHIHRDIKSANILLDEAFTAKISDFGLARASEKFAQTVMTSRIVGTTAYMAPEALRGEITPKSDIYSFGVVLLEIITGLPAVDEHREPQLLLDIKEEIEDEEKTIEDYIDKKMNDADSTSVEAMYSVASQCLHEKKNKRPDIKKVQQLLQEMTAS
Description: Western blot degradation of IRAK4. The note with it: hPBMC Cell; 24 hours. The procedure, abridged:
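Cells treated with compound, lysed, and target protein detected by Western blot (SDS-PAGE, nitrocellulose transfer). DC50 taken as the concentration giving band grayscale half that of DMSO control, estimated by concentration-response fitting; remaining protein (%) from target band normalised to internal control band; degradation (%) = 1 − remaining.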

Assay [5] concerns Human Acute T Lymphoblastic Leukemia Cells (Molt-4). Description: Inhibition of Molt-4 cell proliferation (CellTiter luminescent viability). The note with it: Homo sapiens, MOLT-4, 96 h, Table IA2, IRAK4 inhibitor-based, 96 hours; for inhibition at 0.01 µM: Molt-4, 10 nM, read-out: Inhibition Rate at 10 nM (%); for inhibition at 0.5 µM: Molt-4, 500 nM, read-out: Inhibition Rate at 500 nM (%).

In the case of `O=C1CCN(N2C(=O)c3ccc(CN4CCC(n5cc(NC(=O)c6coc(-c7ccnc(NCC(F)(F)F)c7)n6)c(C(F)F)n5)CC4)cc3C2=O)C(=O)N1` [GT-05188, N-(3-(difluoromethyl)-1-(1-((2-(2,4-dioxotetrahydropyrimidin-1(2H)-yl)-1,3-dioxoisoindolin-5-yl)methyl)piperidin-4-yl)-1H-pyrazol-4-yl)-2-(2-((2,2,2-trifluoroethyl)amino)pyridin-4-yl) oxazole-4-carboxamide], the inhibition at 0.01 µM in assay [1] was in the range of 10 to 15%; in assay [2], 36 to 45%; in assay [4] it was 30 to 40%. The inhibition at 0.5 µM fell in the range of 30 to 40% in assay [1], 80 to 100% in assay [2] and 40 to 60% in assay [3]. The “Degradation of substrate protein IRAK4 (substrate protein remaining %)” value (shortened to “Degradation … (substrate protein remaining %)”) at IRAK4 was “A (0%≤substrate protein remaining %≤80%)”.
For the compound `O=C1CCN(N2C(=O)c3ccc(N4CCC(CN5CCC(n6cc(NC(=O)c7cnn8ccc(N9CCOCC9)nc78)c(C(F)F)n6)CC5)CC4)cc3C2=O)C(=O)N1` [GT-05291, N-(3-(difluoromethyl)-1-(1-((1-(2-(2,4-dioxotetrahydropyrimidin-1(2H)-yl)-1,3-dioxoisoindolin-5-yl)piperidin-4-yl)methyl)piperidin-4-yl)-1H-pyrazol-4-yl)-5-morpholinopyrazolo[1,5-a]pyrimidine-3-carboxamide], the figures for the inhibition at 0.01 µM in assay [1], in assay [2] and in assay [4] were 10 to 15%, 50 to 60% and 25 to 30%, respectively. In addition, the inhibition at 0.5 µM fell in the range of 20 to 25% in assay [1], 60 to 80% in assay [2] and 25 to 30% in assay [3]. Further, the “Degradation … (substrate protein remaining %)” value at IRAK4 is “A (0%≤substrate protein remaining %≤80%)”.
In the case of `CC(C)Nc1cc(-n2ccc3cc(C#N)cnc32)ncc1C(=O)NC1CCN(Cc2ccc3c(c2)CN(N2CCC(=O)NC2=O)C3=O)CC1` [GT-05319, 6-(5-cyano-1H-pyrrolo[2,3-b]pyridin-1-yl)-N-(1-((2-(2,4-dioxotetrahydropyrimidin-1(2H)-yl)-1-oxoisoindolin-5-yl)methyl)piperidin-4-yl)-4-((isopropyl)amino) nicotinamide], the inhibition at 0.01 µM in assay [1] and in assay [4] was 30 to 40% in each case. Moreover, the inhibition at 0.5 µM is 30 to 40% in assay [1] and 40 to 60% in assay [3]. For the same compound, the “Degradation … (substrate protein remaining %)” value at IRAK4 is “A (0%≤substrate protein remaining %≤80%)”.
For the compound `O=C1CCN(N2C(=O)c3ccc(N4CCC(N5CCC(CN6CCC(n7cc(NC(=O)c8cnn9ccc(N%10C[C@H]%11C[C@@H]%10CO%11)nc89)c(C(F)F)n7)CC6)CC5)CC4)cc3C2=O)C(=O)N1` [GT-05816, 5-((1R,4R)-2-oxa-5-azabicyclo[2.2.1]heptan-5-yl)-N-(3-(difluoromethyl)-1-(1-((1′-(2-(2,4-dioxotetrahydropyrimidin-1(2H)-yl)-1,3-dioxoisoindolin-5-yl)-[1,4′-bipiperidin]-4-yl)methyl)piperidin-4-yl)-1H-pyrazol-4-yl)pyrazolo[1,5-a]pyrimidine-3-carboxamide], the inhibition at 0.01 µM in assay [2] was -10 to -5%; in assay [4], 30 to 40%. Moreover, the inhibition at 0.5 µM is 50 to 60% in assay [2] and 15 to 20% in assay [3]. Moreover, the “Degradation … (substrate protein remaining %)” value on IRAK4 was “A (0%≤substrate protein remaining %≤80%)”.
In the case of `CC(C)(O)c1cc2nc(C3CCN(CC4CCN(c5cccc6c5C(=O)N(N5CCC(=O)NC5=O)C6=O)CC4)CC3)sc2cc1NC(=O)c1cccc(C(F)(F)F)n1` [GT-05818, N-(2-(1-((1-(2-(2,4-dioxotetrahydropyrimidin-1(2H)-yl)-1,3-dioxoisoindolin-4-yl)piperidin-4-yl)methyl)piperidin-4-yl)-5-(2-hydroxypropan-2-yl)benzo[d]thiazol-6-yl)-6-(trifluoromethyl) picolinamide], the inhibition at 0.01 µM in assay [2] was 10 to 20%; in assay [4], 20 to 25%. In addition, the inhibition at 0.5 µM in assay [2] is 50 to 60%; in assay [3], 10 to 15%. The “Degradation … (substrate protein remaining %)” value at IRAK4 is recorded as “A (0%≤substrate protein remaining %≤80%)”.
For `COc1cc2nn([C@H]3CC[C@H](CN4CCN(C5CCN(c6ccc7c(c6)C(=O)N(N6CCC(=O)NC6=O)C7=O)CC5(F)F)CC4)CC3)cc2cc1NC(=O)c1cccc(C(F)(F)F)n1` (stereo partly shown) [GT-08659, N-(2-((1r,4r)-4-((4-(1-(2-(2,4-dioxotetrahydropyrimidin-1(2H)-yl)-1,3-dioxoisoindolin-5-yl)-3,3-difluoropiperidin-4-yl)piperazin-1-yl)methyl)cyclohexyl)-6-methoxy-2H-indazol-5-yl)-6-(trifluoromethyl) picolinamide], the inhibition at 0.5 µM in assay [3] lay within 30 to 40%; in assay [5], 20 to 40%. In addition, the inhibition at 0.01 µM in assay [4] lay in the range of 15 to 20%; in assay [5], 10 to 15%. Further, the “Degradation … (substrate protein remaining %)” value at IRAK4 is given as “A (0%≤substrate protein remaining %≤80%)”.
Regarding `COc1cc2nn([C@H]3CC[C@H](CN4CCN(c5ccc6c(c5)C(=O)N(N5CCC(=O)NC5=O)C6=O)CC4)CC3)cc2cc1NC(=O)c1cccc(C(F)(F)F)c1` [GT-08661, N-(2-((1r,4r)-4-((4-(2-(2,4-dioxotetrahydropyrimidin-1(2H)-yl)-1,3-dioxoisoindolin-5-yl)piperazin-1-yl)methyl)cyclohexyl)-6-methoxy-2H-indazol-5-yl)-3-(trifluoromethyl)benzamide], the inhibition at 0.5 µM lay within 25 to 30% in assay [3] and 15 to 20% in assay [5]. The figures for the inhibition at 0.01 µM in assay [4] and in assay [5] were 20 to 25% and 15 to 20%, respectively. In addition, on IRAK4, the “Degradation … (substrate protein remaining %)” value was “A (0%≤substrate protein remaining %≤80%)”.
Regarding `COc1cc2nn([C@H]3CC[C@H](CN4C5CCC4CN(c4ccc6c(c4)C(=O)N(N4CCC(=O)NC4=O)C6=O)C5)CC3)cc2cc1NC(=O)c1cccc(C(F)(F)F)c1` [GT-08667, N-(2-((1r,4r)-4-((3-(2-(2,4-dioxotetrahydropyrimidin-1(2H)-yl)-1,3-dioxoisoindolin-5-yl)-3,8-diazabicyclo[3.2.1]octan-8-yl)methyl)cyclohexyl)-6-methoxy-2H-indazol-5-yl)-3-(trifluoromethyl)benzamide], the inhibition at 0.5 µM in assay [3] lay in the range of 30 to 40%; in assay [5] it was 20 to 40%. Besides, the inhibition at 0.01 µM was 20 to 25% in assay [4] and 20 to 40% in assay [5]. Further, the “Degradation … (substrate protein remaining %)” value on IRAK4 is “A (0%≤substrate protein remaining %≤80%)”.
As to `COc1cc2nn([C@H]3CC[C@H](CN4CCN(c5ccc6c(c5F)C(=O)N(N5CCC(=O)NC5=O)C6=O)CC4)CC3)cc2cc1NC(=O)c1cccc(C(F)(F)F)c1` [GT-08669, N-(2-((1r,4r)-4-((4-(2-(2,4-dioxotetrahydropyrimidin-1(2H)-yl)-4-fluoro-1,3-dioxoisoindolin-5-yl)piperazin-1-yl)methyl)cyclohexyl)-6-methoxy-2H-indazol-5-yl)-3-(trifluoromethyl)benzamide], the inhibition at 0.5 µM in assay [3] lay in the range of 30 to 40%; in assay [5], 20 to 40%. The inhibition at 0.01 µM in assay [4] lay in the range of 20 to 25%; in assay [5], 20 to 40%. Also, the “Degradation … (substrate protein remaining %)” value on IRAK4 was “A (0%≤substrate protein remaining %≤80%)”.

Broadly, the inhibition is the drop in the measured response relative to a control, in per cent.
